Data taken from US9315496B2, “Benzopyrone derivative and use thereof” (HUAZHONG UNIVERSITY OF SCIENCE & TECHNOLOGY, priority 2011, dated 2016).
Where a name gives a salt, the structure may show the parent alone. Read-outs that look alike come from different tables or passages of the source.

Key:
[1] = molecular target: T1, 5-HT1A receptor (Rattus norvegicus, UniProt P19327); assay: 5HT1A receptor binding assay (3H-8-OH-DPAT, rat brain striatum membrane); details: test compound final concentration 10^−5 M; 3H-8-OH-DPAT; rat brain striatum membrane
T1 sequence (P19327 1-422): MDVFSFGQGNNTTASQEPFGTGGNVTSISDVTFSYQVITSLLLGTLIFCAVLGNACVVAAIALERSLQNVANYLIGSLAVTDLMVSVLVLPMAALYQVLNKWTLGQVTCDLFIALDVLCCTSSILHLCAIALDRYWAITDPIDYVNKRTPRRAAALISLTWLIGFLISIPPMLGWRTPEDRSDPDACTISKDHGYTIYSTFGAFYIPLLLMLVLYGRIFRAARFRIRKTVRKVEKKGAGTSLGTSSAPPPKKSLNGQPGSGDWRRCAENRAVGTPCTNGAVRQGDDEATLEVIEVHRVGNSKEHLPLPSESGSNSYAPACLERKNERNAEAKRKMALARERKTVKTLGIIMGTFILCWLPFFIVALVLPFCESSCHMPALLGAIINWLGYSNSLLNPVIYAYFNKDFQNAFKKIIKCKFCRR
Procedure: Incubation at 37° C. was conducted for 10 min, the weight of the tubes were adjusted using a balance after incubation. […] Centrifugation was conducted and repeated 3 times.

[2] = molecular target: dopamine D2 receptor (Rattus norvegicus, UniProt P61169); assay: D2 receptor binding assay (3H-Spiperone, rat brain striatum membrane); details: read-out: D2 inhibition %
Sequence of dopamine D2 receptor (P61169 whole entry): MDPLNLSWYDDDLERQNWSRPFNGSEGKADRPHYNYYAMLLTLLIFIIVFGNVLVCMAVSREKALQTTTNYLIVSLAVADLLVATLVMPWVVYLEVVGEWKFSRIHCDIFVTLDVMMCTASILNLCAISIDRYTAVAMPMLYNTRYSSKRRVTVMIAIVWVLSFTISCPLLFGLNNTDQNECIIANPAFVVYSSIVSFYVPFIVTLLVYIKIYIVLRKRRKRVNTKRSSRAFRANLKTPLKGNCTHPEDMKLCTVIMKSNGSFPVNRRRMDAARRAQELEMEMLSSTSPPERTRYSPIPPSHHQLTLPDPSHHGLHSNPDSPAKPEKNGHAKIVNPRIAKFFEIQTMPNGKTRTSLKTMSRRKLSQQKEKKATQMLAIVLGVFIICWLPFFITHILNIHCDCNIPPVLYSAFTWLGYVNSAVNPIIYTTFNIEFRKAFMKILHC
Procedure: Rats were sacrificed by cervical dislocation on ice. Brain striatum was rapidly taken, and 2 brain striatums were combined into a centrifuge tube, to which 3 ml of buffer (0.05 M Tris-HCl buffer, containing NaCl 120 mM, KCl 5 mM, MgCl2 1 mM, CaCl2 1 mM) was added, homogenization was conducted for 3-4 s at level 4 for four times, and then 5 ml of buffer was then added. The weight of the homogenized tubes were adjusted using a balance, and centrifugation was conducted at 12000 r, 4° C. for 20 min. The supernatant was discarded, and 3 ml of buffer was added (0.05 M Tris-HCl buffer, containing NaCl 120 mM, KCl 5 mM, MgCl2 1 mM, CaCl2 1 mM). Vortex mixer was used for blending, and then 5 ml of buffer was added (0.05 M Tris-HCl buffer, containing NaCl 120 mM, KCl 5 mM, MgCl2 1 mM, CaCl2 1 mM). Centrifugation was conducted (repeated 3 times). After the centrifugations, the supernatant was discarded, and the pellets were stored at −80° C. for future use.
Beckman LS-6500 Multi-function Liquid Scintillation Counter was used.
(1) The prepared membrane was first applied with appropriate amount of homogenized liquid, and homogenizer was used for evenly dispersing. 15 tubes were mixed into a 100 ml container, and appropriate amount of homogenized liquid was added to give 50 ml of membrane suspension, which was reserved for future use.
(2) 100 μL of membrane preparation and 100 μL of buffer were added into each reaction tube.
(3) 100 μL of homogenized liquid was added into the total binding tube (TB), 100 μL of Butaclamol (final concentration 10^−5 M) was added into the non-specific binding tube (NB), and 100 μL of the test compound (final concentration 10^−5 M) was added into the specific binding tube (SB) for each compound.
(5) Each of the reaction tubes was incubated at 37° C. for 20 min. After the reaction was completed, the bound ligands were rapidly filtered under reduced pressure, and the ice-chilled assay buffer was used for adequate washing. The filter was taken out and put into a 3 ml scintillation vial, and 2 ml of toluene scintillation solution was added and blended.
(6) The scintillation vials were put into Liquid Scintillation Counter for counting. Inhibitory rate(1%)=(Total binding tube cpm−compound cpm)/(Total binding tube cpm−non-specific binding tube cpm)×100%
Each assay for the compounds was conducted in duplicate.

[3] = molecular target: 5-HT2A receptor (Rattus norvegicus, UniProt P14842); assay: 5HT2A receptor binding assay ([3H]-Ketanserin, rat brain striatum membrane); details: read-out: 5HT2A inhibition %
Sequence of 5-HT2A receptor (P14842 whole entry): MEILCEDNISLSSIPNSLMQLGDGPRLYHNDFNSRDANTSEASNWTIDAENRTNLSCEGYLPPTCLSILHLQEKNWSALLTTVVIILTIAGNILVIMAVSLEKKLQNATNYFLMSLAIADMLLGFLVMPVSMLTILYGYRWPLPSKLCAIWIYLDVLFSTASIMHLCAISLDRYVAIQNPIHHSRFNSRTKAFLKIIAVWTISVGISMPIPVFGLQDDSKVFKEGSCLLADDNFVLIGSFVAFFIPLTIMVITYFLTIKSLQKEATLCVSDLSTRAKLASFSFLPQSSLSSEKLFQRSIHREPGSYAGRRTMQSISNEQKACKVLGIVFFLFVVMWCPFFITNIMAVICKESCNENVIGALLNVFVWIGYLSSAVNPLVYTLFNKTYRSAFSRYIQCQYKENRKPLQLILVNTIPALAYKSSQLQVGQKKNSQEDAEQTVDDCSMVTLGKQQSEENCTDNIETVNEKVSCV

[4] = test compound final concentration 10^−5 M, [3H]-Ketanserin, rat brain striatum membrane

Structure (SMILES)	inhibition at 10 µM [1] [%]	inhibition at 10 µM [2] [%]	inhibition at 10 µM [3, 4] [%]	melting point [°C]	inhibition at 10 µM [3] [%]
O=c1cc(C(F)(F)F)c2ccc(OCCCCN3CCC(c4noc5cc(F)ccc45)CC3)cc2o1 [Compound 17, 7-(4-(4-(3-(6-fluoro-benzisoxazole)-1-piperidyl)-n-butoxy))-4-(trifluoromethyl)-2H-benzopyran-2-one]	101	92.3	95.9	125 to 127	
Cc1cc(=O)oc2c(C)c(OCCCCN3CCN(c4nsc5ccccc45)CC3)ccc12 [Compound 24, 7-(4-(4-(3-(1,2-benzisothiazole)-1-piperazinyl)-n-butoxy))-4-8-dimethyl-2H-benzopyran-2-one]	105	98.1	97.4	106 to 108	
Cc1cc(=O)oc2c(Cl)c(OCCCCN3CCN(c4nsc5ccccc45)CC3)ccc12 [Compound 20, 7-(4-(4-(3-(1,2-benzisothiazole)-1-piperazinyl)-n-butoxy))-4-methyl-8-chloro-2H-benzopyran-2-one]	92.8	9.7	15.5	133 to 135	
CCc1cc(=O)oc2cc(OCCCCN3CCC(c4noc5cc(F)ccc45)CC3)ccc12 [Compound 27, 7-(4-(4-(3-(6-fluoro-benzisoxazole)-1-piperidyl)-n-butoxy))-4-ethyl-2H-benzopyran-2-one]	65.7	84	124		
O=c1cc(-c2ccccc2)c2ccc(OCCCCN3CCC(c4noc5cc(F)ccc45)CC3)cc2o1 [Compound 13, 7-(4-(4-(3-(6-fluoro-benzisoxazole)-1-piperidyl)-n-butoxy))-4-phenyl-2H-benzopyran-2-one]	111	65.2			67.2
O=c1cc(CO)c2ccc(OCCCCN3CCC(c4noc5cc(F)ccc45)CC3)cc2o1 [Compound 31, 7-(4-(4-(3-(6-fluoro-benzisoxazole)-1-piperidyl)-n-butoxy))-4-hydroxymethyl-2H-benzopyran-2-one]	63.9	2.4	1.8	160 to 162	
O=c1cc(-c2ccccc2)c2ccc(OCCCN3CCN(c4nsc5ccccc45)CC3)cc2o1 (as salt: hydrochloride) [Compound 12, 7-(3-(4-(3-(1,2-benzisothiazole)-1-piperazinyl)-n-propoxy))-4-phenyl-2H-benzopyran-2-one]				96 to 98	
O=c1cc(C(F)(F)F)c2ccc(OCCCN3CCN(c4nsc5ccccc45)CC3)cc2o1 (as salt: hydrochloride) [Compound 16, 7-(3-(4-(3-(1,2-benzisothiazole)-1-piperazinyl)-n-propoxy))-4-(trifluoromethyl)-2H-benzopyran-2-one]				103 to 105	
O=c1cc(C(F)(F)F)c2ccc(OCCCN3CCC(c4noc5cc(F)ccc45)CC3)cc2o1 [Compound 15, 7-(3-(4-(3-(6-fluoro-benzisoxazole)-1-piperidyl)-n-propoxy))-4-(trifluoromethyl)-2H-benzopyran-2-one]	107	94.6	83.3	146 to 148	
O=c1cc(-c2ccccc2)c2ccc(OCC(O)CN3CCC(c4noc5cc(F)ccc45)CC3)cc2o1 (centres unmarked) [Compound 33, 7-(3-(4-(3-(6-fluoro-benzisoxazole)-1-piperidyl)-2-hydroxylpropoxy))-4-phenyl-2H-benzopyran-2-one]	23.5	110	129	193 to 195	
O=c1cc(-c2ccccc2)c2ccc(OCCCCN3CCN(c4nsc5ccccc45)CC3)cc2o1 [Compound 14, 7-(4-(4-(3-(1,2-benzisothiazole)-1-piperazinyl)-n-butoxy))-4-phenyl-2H-benzopyran-2-one]	95.5	68.6	83.4	116 to 118	
Cc1cc(=O)oc2c(Cl)c(OCCCN3CCC(c4noc5cc(F)ccc45)CC3)ccc12 [Compound 21, 7-(3-(4-(3-(6-fluoro-benzisoxazole)-1-piperidyl)-n-propoxy))-4-methyl-8-chloro-2H-benzopyran-2-one]	101	32.9	90.1	185 to 187	
O=c1ccc2ccc(OCCCN3CCN(c4nsc5ccccc45)CC3)cc2o1 [Compound 4, 7-(3-(4-(3-(1,2-benzisothiazole)-1-piperazinyl)-n-propoxy))-2H-benzopyran-2-one]	101	49.2	59.1	91 to 93	
O=c1cc(C(F)(F)F)c2ccc(OCCCN3CCN(c4nsc5ccccc45)CC3)cc2o1 [Compound 16, 7-(3-(4-(3-(1,2-benzisothiazole)-1-piperazinyl)-n-propoxy))-4-(trifluoromethyl)-2H-benzopyran-2-one]	104	115	96.3		
CCCc1cc(=O)oc2cc(OCCCCN3CCC(c4noc5cc(F)ccc45)CC3)ccc12 [Compound 25, 7-(4-(4-(3-(6-fluoro-benzisoxazole)-1-piperidyl)-n-butoxy))-4-n-propyl-2H-benzopyran-2-one]	84.5	70.7	40.2	139 to 141	
O=c1ccc2ccc(OCCCN3CCC(c4noc5cc(F)ccc45)CC3)cc2o1 [Compound 3, 7-(3-(4-(3-(6-fluoro-benzisoxazole)-1-piperidyl)-n-propoxy))-2H-benzopyran-2-one]	42.3	106	101	128 to 130	
Cc1cc(=O)oc2cc(OCCCCN3CCN(c4nsc5ccccc45)CC3)ccc12 [Compound 5, 7-(4-(4-(3-(1,2-benzisothiazole)-1-piperazinyl)-n-butoxy))-4-methyl-2H-benzopyran-2-one]	114	88.5	104	110 to 112	
CCCc1cc(=O)oc2cc(OCCCCN3CCN(c4nsc5ccccc45)CC3)ccc12 [Compound 26, 7-(4-(4-(3-(1,2-benzisothiazole)-1-piperazinyl)-n-butoxy))-4-n-propyl-2H-benzopyran-2-one]	99.7	61.9	129		
O=c1cc(-c2ccccc2)c2ccc(OCCCN3CCC(c4noc5cc(F)ccc45)CC3)cc2o1 [Compound 11, 7-(3-(4-(3-(6-fluoro-benzisoxazole)-1-piperidyl)-n-propoxy))-4-phenyl-2H-benzopyran-2-one]	35.3	18.5	57.8	185 to 187	
O=c1ccc2ccc(OCCCCN3CCN(c4nsc5ccccc45)CC3)cc2o1 [Compound 2, 7-(4-(4-(3-(1,2-benzisothiazole)-1-piperazinyl)-n-butoxy))-2H-benzopyran-2-one]	99.4	80.6	103		
O=C1CC(c2ccccc2)c2ccc(OCCCCN3CCC(c4noc5cc(F)ccc45)CC3)cc2O1 (centres unmarked) [Compound 34]	5.9	120	115		
Cc1c(C)c2ccc(OCCCCN3CCC(c4noc5cc(F)ccc45)CC3)cc2oc1=O [Compound 29, 7-(4-(4-(3-(6-fluoro-benzisoxazole)-1-piperidyl)-n-butoxy))-3,4-dimethyl-2H-benzopyran-2-one]	97.1	43.2	24.7	106 to 108	
O=c1cc(CO)c2ccc(OCCCN3CCC(c4noc5cc(F)ccc45)CC3)cc2o1 [Compound 30, 7-(3-(4-(3-(6-fluoro-benzisoxazole)-1-piperidyl)-n-propoxy))-4-hydroxymethyl-2H-benzopyran-2-one]	82.8	20.3	98.5	144 to 146	
Cc1cc(=O)oc2cc(OCCCCCN3CCC(c4noc5cc(F)ccc45)CC3)ccc12 [Compound 9, 7-(5-(4-(3-(6-fluoro-benzisoxazole)-1-piperidyl)-n-pentyloxy))-4-methyl-2H-benzopyran-2-one]	88.8	102	120	119 to 121	
Cc1cc(=O)oc2cc(OC/C=C/CN3CCC(c4noc5cc(F)ccc45)CC3)ccc12 [Compound 10, (E)-7-(4-(4-(3-(6-fluoro-benzisoxazole)-3-piperidyl)-but-2-enyloxy))-4-methyl-2H-benzopyran-2-one]	102	111	109	129 to 130	
O=c1ccc2ccc(OCCCCN3CCN(c4nsc5ccccc45)CC3)cc2o1 (as salt: hydrochloride) [Compound 2, 7-(4-(4-(3-(1,2-benzisothiazole)-1-piperazinyl)-n-butoxy))-2H-benzopyran-2-one]				103 to 105	
